Experimental data reported in PubChem BioAssay AID1259407 (Chemical Carcinogenesis Research Information System (CCRIS), 2018).
The source made the active and inactive calls. How the calls were made is not given here.

System: CCRIS mutagenicity, Ames/micronucleus/aberration tests
Assay: CCRIS mutagenicity studies

Measured: mutagenic call

Clc1ccc(COC(Cn2ccnc2)c2ccc(Cl)cc2Cl)cc1 (configuration not stated)
inactive: End Point: IN VITRO MICRONUCLEUS, Test System: HAMSTER V79 CELLS, Metabolic Activation: NONE inactive; negative | Test System: AMES SALMONELLA TYPHIMURIUM, Strain/Indicator: TA97, Metabolic Activation: HAMSTER, LIVER, S-9, AROCLOR 1254 (10 OR 30%), Method: PREINCUBATION inactive; negative | Test System: AMES SALMONELLA TYPHIMURIUM, Strain/Indicator: TA97, Metabolic Activation: NONE, Method: PREINCUBATION inactive; negative | Test System: AMES SALMONELLA TYPHIMURIUM, Strain/Indicator: TA97, Metabolic Activation: RAT, LIVER, S-9, AROCLOR 1254 (10 OR 30%), Method: PREINCUBATION inactive; negative | Test System: AMES SALMONELLA TYPHIMURIUM, Strain/Indicator: TA98, Metabolic Activation: HAMSTER, LIVER, S-9, AROCLOR 1254 (10 OR 30%), Method: PREINCUBATION inactive; negative | Test System: AMES SALMONELLA TYPHIMURIUM, Strain/Indicator: TA98, Metabolic Activation: NONE, Method: PREINCUBATION inactive; negative | Test System: AMES SALMONELLA TYPHIMURIUM, Strain/Indicator: TA98, Metabolic Activation: RAT, LIVER, S-9, AROCLOR 1254 (10 OR 30%), Method: PREINCUBATION inactive; negative | Test System: AMES SALMONELLA TYPHIMURIUM, Strain/Indicator: TA100, Metabolic Activation: HAMSTER, LIVER, S-9, AROCLOR 1254 (10 OR 30%), Method: PREINCUBATION inactive; negative | Test System: AMES SALMONELLA TYPHIMURIUM, Strain/Indicator: TA100, Metabolic Activation: NONE, Method: PREINCUBATION inactive; negative | Test System: AMES SALMONELLA TYPHIMURIUM, Strain/Indicator: TA100, Metabolic Activation: RAT, LIVER, S-9, AROCLOR 1254 (10 OR 30%), Method: PREINCUBATION inactive; negative | Test System: AMES SALMONELLA TYPHIMURIUM, Strain/Indicator: TA1535, Metabolic Activation: HAMSTER, LIVER, S-9, AROCLOR 1254 (10 OR 30%), Method: PREINCUBATION inactive; negative | Test System: AMES SALMONELLA TYPHIMURIUM, Strain/Indicator: TA1535, Metabolic Activation: NONE, Method: PREINCUBATION inactive; negative | Test System: AMES SALMONELLA TYPHIMURIUM, Strain/Indicator: TA1535, Metabolic Activation: RAT, LIVER, S-9, AROCLOR 1254 (10 OR 30%), Method: PREINCUBATION inactive; negative

Cc1ccccc1-c1nc2ccccc2o1
inactive: Test System: AMES SALMONELLA TYPHIMURIUM, Strain/Indicator: TA98, Metabolic Activation: NONE, Method: STANDARD PLATE inactive; negative | Test System: AMES SALMONELLA TYPHIMURIUM, Strain/Indicator: TA98, Metabolic Activation: S-9, Method: STANDARD PLATE inactive; negative

CCN(CC)CC#CCOC(=O)C(O)(c1ccccc1)C1CCCCC1 (configuration not stated)
inactive: Test System: AMES SALMONELLA TYPHIMURIUM, Strain/Indicator: TA98, Metabolic Activation: NONE inactive; negative | Test System: AMES SALMONELLA TYPHIMURIUM, Strain/Indicator: TA98, Metabolic Activation: S-9 inactive; negative | Test System: AMES SALMONELLA TYPHIMURIUM, Strain/Indicator: TA100, Metabolic Activation: NONE inactive; negative | Test System: AMES SALMONELLA TYPHIMURIUM, Strain/Indicator: TA100, Metabolic Activation: S-9 inactive; negative | Test System: AMES SALMONELLA TYPHIMURIUM, Strain/Indicator: TA1535, Metabolic Activation: NONE inactive; negative | Test System: AMES SALMONELLA TYPHIMURIUM, Strain/Indicator: TA1535, Metabolic Activation: S-9 inactive; negative | Test System: AMES SALMONELLA TYPHIMURIUM, Strain/Indicator: TA1537, Metabolic Activation: NONE inactive; negative | Test System: AMES SALMONELLA TYPHIMURIUM, Strain/Indicator: TA1537, Metabolic Activation: S-9 inactive; negative | Test System: AMES SALMONELLA TYPHIMURIUM, Strain/Indicator: TA1538, Metabolic Activation: NONE inactive; negative | Test System: AMES SALMONELLA TYPHIMURIUM, Strain/Indicator: TA1538, Metabolic Activation: S-9 inactive; negative | Test System: E. COLI, Strain/Indicator: WP2 UVRA, Metabolic Activation: NONE inactive; negative | Test System: E. COLI, Strain/Indicator: WP2 UVRA, Metabolic Activation: S-9 inactive; negative
